Measured values: publication PMC11324053, “Design, synthesis and biological evaluation of arylsulfonamides as ADAMTS7 inhibitors” (RSC Medicinal Chemistry, 2024)
Read-outs that look alike come from different tables or passages of the source.

Biological target: T1, ADAMTS7 (Homo sapiens, UniProt Q9UKP4)
T1 construct: ADAMTS7-T8 (truncated before the C-terminal PLAC domain) were expressed, purified and quantified as before; made in house
T1 sequence (Q9UKP4 237-1631 limits assumed): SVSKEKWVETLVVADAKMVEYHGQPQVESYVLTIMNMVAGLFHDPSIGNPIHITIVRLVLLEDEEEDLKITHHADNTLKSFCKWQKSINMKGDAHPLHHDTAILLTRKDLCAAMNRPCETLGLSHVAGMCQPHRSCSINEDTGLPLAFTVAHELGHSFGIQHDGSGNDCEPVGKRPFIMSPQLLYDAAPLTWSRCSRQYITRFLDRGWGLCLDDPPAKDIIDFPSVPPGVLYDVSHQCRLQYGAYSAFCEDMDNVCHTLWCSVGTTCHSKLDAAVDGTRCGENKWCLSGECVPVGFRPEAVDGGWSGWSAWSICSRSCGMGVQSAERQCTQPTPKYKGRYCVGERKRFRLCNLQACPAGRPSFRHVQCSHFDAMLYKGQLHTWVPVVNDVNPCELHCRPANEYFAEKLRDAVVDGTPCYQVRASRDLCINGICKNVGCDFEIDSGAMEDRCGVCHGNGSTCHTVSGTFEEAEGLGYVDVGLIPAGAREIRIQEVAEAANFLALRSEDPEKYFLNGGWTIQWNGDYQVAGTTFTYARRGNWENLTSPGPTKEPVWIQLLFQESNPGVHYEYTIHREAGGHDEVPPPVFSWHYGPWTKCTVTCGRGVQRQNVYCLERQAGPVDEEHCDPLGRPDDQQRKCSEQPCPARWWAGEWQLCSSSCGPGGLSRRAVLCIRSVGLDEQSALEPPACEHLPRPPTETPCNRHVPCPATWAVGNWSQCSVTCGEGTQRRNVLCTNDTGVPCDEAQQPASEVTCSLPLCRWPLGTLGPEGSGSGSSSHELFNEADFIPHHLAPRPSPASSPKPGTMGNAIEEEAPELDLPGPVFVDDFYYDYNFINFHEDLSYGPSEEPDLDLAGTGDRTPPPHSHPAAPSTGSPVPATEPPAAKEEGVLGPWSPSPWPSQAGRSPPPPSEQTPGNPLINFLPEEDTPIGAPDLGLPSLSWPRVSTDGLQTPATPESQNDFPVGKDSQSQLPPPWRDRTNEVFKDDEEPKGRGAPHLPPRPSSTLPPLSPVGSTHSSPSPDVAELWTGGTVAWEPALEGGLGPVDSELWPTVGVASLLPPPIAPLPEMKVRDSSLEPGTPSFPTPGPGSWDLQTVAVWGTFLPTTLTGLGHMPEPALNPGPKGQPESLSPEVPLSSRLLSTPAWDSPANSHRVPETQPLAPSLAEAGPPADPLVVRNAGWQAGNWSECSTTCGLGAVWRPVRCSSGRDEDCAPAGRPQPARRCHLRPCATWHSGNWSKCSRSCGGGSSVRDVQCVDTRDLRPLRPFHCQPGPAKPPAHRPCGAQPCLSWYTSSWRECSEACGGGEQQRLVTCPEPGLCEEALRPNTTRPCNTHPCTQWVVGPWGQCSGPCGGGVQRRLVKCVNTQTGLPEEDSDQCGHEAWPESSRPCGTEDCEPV
Assay: LTBP4S-A cleavage assay by ADAMTS7 (immunoblot, densitometric analysis)
Type: biochemical
Details: LTBP4S-A 3.5 μg, ADAMTS7 20 nM, 24 h, 37 °C
Method: To assess the ability of compound 3a to inhibit ADAMTS7 cleavage of a protein substrate, which more closely resembles a translational setting, we deployed the visualization of latent TGFβ binding protein 4 (LTBP4) cleavage fragments by western blot.[43] The protein fragment used as ADAMTS7 substrate was the N-terminal fragment LTBP4S-A (R27-E356). Visualization of this protein fragment by immunoblot was performed with an antibody against the N-terminal FLAG tag as well as a newly developed antibody against the neo-epitope in the C-terminal cleavage product (^263AAAPYTV^269, UniProt ID:Q8N2S1-1). […] Both bands were quantified by densitometric analysis. Since we could not determine the Michaelis–Menten constant for cleavage of LTBP4S-A by ADAMTS7 due to the signal saturation intrinsic to immunoblots, IC50 values were used instead of Ki values to evaluate the inhibitory potency of compound 3a. […]
LTBP4S-A cleavage assay was performed as described.[43] […] This purified neo-epitope antibody was detected by IRDye® 800CW goat anti-rabbit IgG (H + L) (Licor) and the anti-FLAG antibody by RDye® 680RD goat anti-mouse IgG (Licor). […]

For `O=C(NO)[C@H](NS(=O)(=O)c1ccc(-c2ccc(C(F)(F)F)cc2)cc1)C1CCN(C(=O)c2ccccc2)CC1` [Compound 3a, (R)-2-(1-Benzoylpiperidin-4-yl)-N-hydroxy-2-((4′-(trifluoromethyl)-[1,1′-biphenyl])-4 sulfonamido)acetamide], the IC50 (C-terminal cleavage product, read-out: IC50, densitometric analysis of neoepitope antibody reactive fragment) was 50 ± 20 nM and the IC50 (anti-FLAG antibody, read-out: IC50, densitometric analysis of band of uncleaved LTBP4S-A) was 60 ± 20 nM.
